From the NIST ThermoML archive (doi:10.1021/je034253u)
± gives the expanded uncertainty stated by the source.

Assay: excess molar enthalpy (molar enthalpy of mixing); xn = mol fraction of the nth substance listed
Conditions: Liquid, Flow calorimetry

CC1CO1 (stereo not drawn) [methyloxirane] + CCCC(C)C
excess molar enthalpy (323.15 K, 1140 kPa, x1 = 0.0895): 0.0966 ± 0.0012 kcal/mol | excess molar enthalpy (323.15 K, 1140 kPa, x1 = 0.1719): 0.1678 ± 0.00167 kcal/mol | excess molar enthalpy (323.15 K, 1140 kPa, x1 = 0.2479): 0.2199 ± 0.00191 kcal/mol | excess molar enthalpy (323.15 K, 1140 kPa, x1 = 0.3184): 0.2548 ± 0.00215 kcal/mol | excess molar enthalpy (323.15 K, 1140 kPa, x1 = 0.3838): 0.2782 ± 0.00239 kcal/mol | excess molar enthalpy (323.15 K, 1140 kPa, x1 = 0.4447): 0.2909 ± 0.00239 kcal/mol | excess molar enthalpy (323.15 K, 1140 kPa, x1 = 0.5015): 0.2964 ± 0.00239 kcal/mol | excess molar enthalpy (323.15 K, 1140 kPa, x1 = 0.5547): 0.2945 ± 0.00239 kcal/mol | excess molar enthalpy (323.15 K, 1140 kPa, x1 = 0.6045): 0.2873 ± 0.00239 kcal/mol | excess molar enthalpy (323.15 K, 1140 kPa, x1 = 0.6514): 0.2763 ± 0.00239 kcal/mol | excess molar enthalpy (323.15 K, 1140 kPa, x1 = 0.6954): 0.2591 ± 0.00215 kcal/mol | excess molar enthalpy (323.15 K, 1140 kPa, x1 = 0.737): 0.2397 ± 0.00215 kcal/mol | excess molar enthalpy (323.15 K, 1140 kPa, x1 = 0.7763): 0.2177 ± 0.00191 kcal/mol | excess molar enthalpy (323.15 K, 1140 kPa, x1 = 0.8134): 0.1924 ± 0.00191 kcal/mol | excess molar enthalpy (323.15 K, 1140 kPa, x1 = 0.8486): 0.165 ± 0.00167 kcal/mol | excess molar enthalpy (323.15 K, 1140 kPa, x1 = 0.882): 0.135 ± 0.00143 kcal/mol | excess molar enthalpy (323.15 K, 1140 kPa, x1 = 0.9137): 0.103 ± 0.00143 kcal/mol | excess molar enthalpy (323.15 K, 1140 kPa, x1 = 0.9439): 0.0691 ± 0.0012 kcal/mol | excess molar enthalpy (323.15 K, 1140 kPa, x1 = 0.9726): 0.0332 ± 0.0012 kcal/mol

FC(F)C(F)(F)F [pentafluoroethane] + FCF
excess molar enthalpy (308.15 K, 5130 kPa, x2 = 0.088): 0.00598 ± 0.000956 kcal/mol | excess molar enthalpy (308.15 K, 5130 kPa, x2 = 0.1692): 0.012 ± 0.000956 kcal/mol | excess molar enthalpy (308.15 K, 5130 kPa, x2 = 0.2444): 0.0174 ± 0.000956 kcal/mol | excess molar enthalpy (308.15 K, 5130 kPa, x2 = 0.3142): 0.0227 ± 0.000956 kcal/mol | excess molar enthalpy (308.15 K, 5130 kPa, x2 = 0.3792): 0.0272 ± 0.000956 kcal/mol | excess molar enthalpy (308.15 K, 5130 kPa, x2 = 0.4399): 0.0308 ± 0.000956 kcal/mol | excess molar enthalpy (308.15 K, 5130 kPa, x2 = 0.4967): 0.0337 ± 0.000956 kcal/mol | excess molar enthalpy (308.15 K, 5130 kPa, x2 = 0.5499): 0.0359 ± 0.000956 kcal/mol | excess molar enthalpy (308.15 K, 5130 kPa, x2 = 0.5999): 0.037 ± 0.000956 kcal/mol | excess molar enthalpy (308.15 K, 5130 kPa, x2 = 0.647): 0.0375 ± 0.000956 kcal/mol | excess molar enthalpy (308.15 K, 5130 kPa, x2 = 0.6913): 0.037 ± 0.000956 kcal/mol | excess molar enthalpy (308.15 K, 5130 kPa, x2 = 0.7332): 0.0359 ± 0.000956 kcal/mol | excess molar enthalpy (308.15 K, 5130 kPa, x2 = 0.7729): 0.0339 ± 0.000956 kcal/mol | excess molar enthalpy (308.15 K, 5130 kPa, x2 = 0.8105): 0.0311 ± 0.000956 kcal/mol | excess molar enthalpy (308.15 K, 5130 kPa, x2 = 0.8461): 0.0275 ± 0.000956 kcal/mol | excess molar enthalpy (308.15 K, 5130 kPa, x2 = 0.88): 0.0232 ± 0.000956 kcal/mol | excess molar enthalpy (308.15 K, 5130 kPa, x2 = 0.9122): 0.0182 ± 0.000956 kcal/mol | excess molar enthalpy (308.15 K, 5130 kPa, x2 = 0.9428): 0.0124 ± 0.000956 kcal/mol | excess molar enthalpy (308.15 K, 5130 kPa, x2 = 0.9721): 0.00621 ± 0.000956 kcal/mol
